Entries after “also recorded” stand apart in the source; their conditions may differ. Where two headings read alike, the source gives them in different places.
Columns and labels:
Format in all cases: physicochemical
solubility to water = details: 25° C.
[1] = stability in the atmospheric condition and in aqueous solution
[2] = pH of 5% aqueous solution

O=C([O-])CN(CCN1CCN2CC(=O)[O][Ru]([O]C(=O)C1)[O]C(=O)C2)CC(=O)[O-] [diammonium ruthenium diethylenetriaminepentaacetate]
solubility to water (solubility to water): 53 mass % | solubility (solubility to water; crystals of Example 1): 53% | precipitation in aqueous solution on change of pH ([1]; acid or alkali added into the aqueous solution to change pH): does not precipitate; also recorded: without precipitating | storage stability (decomposition or transformation) ([1]; in the atmospheric condition and in the aqueous solution): can be stably preserved; also recorded: not decomposed | pH of 5% aqueous solution [2]: 5.1 | pH of 5% aqueous solution ([2]; listed as DTPA.Ru(III).(NH4)2.2H2O): 5.10
